The record followed here is patent US8252935B2, “Piperidinyl and piperazinyl modulators of γ-secretase” (Janssen Pharmaceutica N.V., priority 2007, dated 2012).

The target of this experiment is γ-secretase (Homo sapiens, UniProt P49768). Description: Screening for γ-secretase-modulating activity in SKNBE2 cells carrying APP 695 wild type (assay of Citron et al 1997). Format: cell-based. As to conditions: SKNBE2, @ 1 uM; SKNBE2 cells carrying the APP 695 wild type. On the procedure: Screening was carried out using SKNBE2 cells carrying the APP 695—wild type, grown in DMEM/NUT-mix F12 (HAM) provided by Gibco (cat no. 31330-38) containing 5% Serum/Fe supplemented with 1% non-essential amino acids. Cells were grown to near confluency. The screening was performed using the assay as described in Citron et al (1997) Nature Medicine 3: 67.

One may read the inhibition as the drop in the measured response relative to a control, in per cent. Low values mean a weak effect, high ones a strong effect. The compound `CC(C)CC(C(=O)O)c1cc(-c2ccc(C(F)(F)F)cc2)cc(C2CCCN(c3ccc(F)c(F)c3)C2)c1` (stereo not drawn) [Example 55, 2-{5-[1-(3,4-Difluoro-phenyl)-piperidin-3-yl]-4′-trifluoromethyl-biphenyl-3-yl}-4-methyl-pentanoic acid] showed an inhibition at 1 µM of 45%.
On to `CC(C)CC(C(=O)O)c1cc(-c2ccc(C(F)(F)F)cc2)cc(C2CCCN(c3ccccc3)C2)c1` (stereo not drawn) [Example 58, 4-Methyl-2-[5-(1-phenyl-piperidin-3-yl)-4′-trifluoromethyl-biphenyl-3-yl]-pentanoic acid], for which at 1 µM the inhibition was 40%.
The result for `CC(C)CC(C(=O)O)c1cc(-c2ccc(C(F)(F)F)cc2)cc(C2CCCN(c3ccc(C(F)(F)F)cc3)C2)c1` (stereo not drawn) [Example 59, 4-Methyl-2-{4′-trifluoromethyl-5-[1-(4-trifluoromethyl-phenyl)-piperidin-3-yl]-biphenyl-3-yl}-pentanoic acid] reads 37%; that for `COCCCC1CCCCN1c1cc(-c2ccc(C(F)(F)F)cc2)cc([C@@H](CC(C)C)C(=O)O)c1` (stereo partly drawn) [Example 60, (R)-2-{5-[2-(3-Methoxy-propyl)-piperidin-1-yl]-4′-trifluoromethyl-biphenyl-3-yl}-4-methyl-pentanoic acid], 52%.
`CC(C)CCN1CCCC(c2cc(-c3ccc(C(F)(F)F)cc3)cc(C(CC(C)C)C(=O)O)c2)C1` (stereo not drawn) [Example 62, 4-Methyl-2-{5-[1-(3-methyl-butyl)-piperidin-3-yl]-4′-trifluoromethyl-biphenyl-3-yl}-pentanoic acid] showed an inhibition at 1 µM of 5%.
`CCN1CCCC(c2cc(-c3ccc(C(F)(F)F)cc3)cc(C(CC(C)C)C(=O)O)c2)C1` (stereo not drawn) [Example 66, 2-[5-(1-Ethyl-piperidin-3-yl)-4′-trifluoromethyl-biphenyl-3-yl]-4-methyl-pentanoic acid] registered an inhibition at 1 µM of 0%.
Compound `CC(C)CC(C(=O)O)c1cc(-c2ccc(C(F)(F)F)cc2)cc(C2CCCN(Cc3ccccc3)C2)c1` (stereo not drawn) [Example 67, 2-[5-(1-Benzyl-piperidin-3-yl)-4′-trifluoromethyl-biphenyl-3-yl]-4-methyl-pentanoic acid] came in with an inhibition at 1 µM of 49%.
In the case of `CC(C)CC(C(=O)O)c1cc(-c2ccc(C(F)(F)F)cc2)cc(C2CCNCC2)c1` (stereo not drawn) [Example 68, 4-Methyl-2-(5-piperidin-4-yl-4′-trifluoromethyl-biphenyl-3-yl)-pentanoic acid], the inhibition at 1 µM turned out to be 2%.
`CC(C)/C=C/CN1CCC(c2cc(-c3ccc(C(F)(F)F)cc3)cc(C(CC(C)C)C(=O)O)c2)CC1` (stereo not drawn) [Example 69, 4-Methyl-2-{5-[1-(4-methyl-pent-2-enyl)-piperidin-4-yl]-4′-trifluoromethyl-biphenyl-3-yl}-pentanoic acid] gave an inhibition at 1 µM of 8%.
Turning to `CC(C)CC(C(=O)O)c1cc(-c2ccc(C(F)(F)F)cc2)cc(C2CCN(Cc3cc(F)cc(C(F)(F)F)c3)CC2)c1` (stereo not drawn) [Example 70, 2-{5-[1-(3-Fluoro-5-trifluoromethyl-benzyl)-piperidin-4-yl]-4′-trifluoromethyl-biphenyl-3-yl}-4-methyl-pentanoic acid], the inhibition at 1 µM came out at 47%.
`CC(C)CCC(c1ccc(C(F)(F)F)cc1)N1CCC(c2cc(-c3ccc(C(F)(F)F)cc3)cc(C(CC(C)C)C(=O)O)c2)CC1` (stereo not drawn) [Example 71, 4-Methyl-2-(5-{1-[4-methyl-1-(4-trifluoromethyl-phenyl)-pentyl]-piperidin-4-yl}-4′-trifluoromethyl-biphenyl-3-yl)-pentanoic acid] had an inhibition at 1 µM of 51%.
Turning to `CC(C)CC(C(=O)O)c1cc(-c2ccc(C(F)(F)F)cc2)cc(C2CCN(c3ccc(C(F)(F)F)cc3)CC2)c1` (stereo not drawn) [Example 72, 4-Methyl-2-{4′-trifluoromethyl-5-[1-(4-trifluoromethyl-phenyl)-piperidin-4-yl]-biphenyl-3-yl}-pentanoic acid], the inhibition at 1 µM is 6%.
